Paper PMC11876671, “Investigating blood–brain barrier penetration and neurotoxicity of natural products for central nervous system drug development” (Scientific Reports, 2025)
Structures can show the parent of a compound that is named as a salt. Where two headings read alike, the source gives them in different places.

Tests used:
[1] = tested on: GFP-labeled iPSC-derived human cortical glutamatergic neurons; test: cells; type: cell-based
in vitro = conditions: PAMPA, PAMPA-BBB Pe
[2] = tested on: GFP-labeled iPSC-derived human cortical glutamatergic neurons; test: cells; conditions: Neuron, 48 h
[3] = Homo sapiens, Neuron, total neurite length, 48 h treatment, read-out: TNL AC50 (48 h)
[4] = Table S1, 60 min, room temperature, 0.05 mM
[5] = Table 1, 60 min, room temperature, 0.05 mM
[6] = Table S2: compounds exhibiting moderate to high PAMPA-BBB permeability
[7] = read-out: Viability AC50 (48 h)
[8] = Homo sapiens, Neuron, Table S1, total neurite length, 48 hr, head prints no unit, µM per Table 1 and Fig. 5, read-out: TNL AC50 (48 hr)
[9] = read-out: Viability AC50 (48hr)

| Compound | Papp (in vitro; [4]) | PAMPA-BBB Pe [6] | AC50 [1, 8] | AC50 [2, 9] | other results |
| --- | --- | --- | --- | --- | --- |
| CC(/C=C/C(=O)NO)=C\[C@@H](C)C(=O)c1ccc(N(C)C)cc1 [Trichostatin A] | 54.7 ×10⁻⁶ cm/s | 55 10^-6 cm/sec |  |  | AC50 ([1]; Homo sapiens, Neuron, rounded values, read-out: AC50 (neurite outgrowth inhibition)): 1.7 µM; AC50 [1, 3]: 1.66 µM; PAMPA-BBB Pe [5]: 54.74 10 × 10^− 6 cm/sec; AC50 [2, 7]: 0.472 µM |
| C=CC[C@@H]1/C=C(\C)C[C@H](C)C[C@H](OC)[C@H]2O[C@@](O)(C(=O)C(=O)N3CCCC[C@H]3C(=O)O[C@H](/C(C)=C/[C@@H]3CC[C@@H](O)[C@H](OC)C3)[C@H](C)[C@@H](O)CC1=O)[C@H](C)C[C@@H]2OC [Tacrolimus, reference compound] | 154 ×10⁻⁶ cm/s | 154 10^-6 cm/sec | 2.65 µM | 4.19 µM | AC50 [1, 3]: 2.65 µM; PAMPA-BBB Pe [5]: 154.13 10 × 10^− 6 cm/sec; AC50 [2, 7]: 4.19 µM |
| CCCCCC(=O)Cc1cc(O)cc(O)c1C(=O)Oc1cc(CC(=O)CCCCC)c(C(=O)O)c(OC)c1 [NCGC00095554-03] |  | >1000 10^-6 cm/sec | 6.66 µM |  | PAMPA-BBB Pe [4]: >1000 10^-6 cm/sec |
| COC(=O)[C@H]1[C@H]2C[C@@H]3c4[nH]c5cc(OC)ccc5c4CCN3C[C@H]2C[C@@H](OC(=O)c2cc(OC)c(OC)c(OC)c2)[C@@H]1OC [Reserpine, reference compound] |  |  | 31.8 µM | 35.2 µM | Papp (in vitro): 90.1 ×10⁻⁶ cm/s; PAMPA-BBB Pe (PAMPA): 90 10^-6 cm/sec |
| OCC=Cc1ccccc1 [Cinnamyl alcohol] | 97.5 ×10⁻⁶ cm/s | 97 10^-6 cm/sec | 5.95 µM |  | Papp (in vitro; [6]): 69 ×10⁻⁶ cm/s |
| COC(=O)[C@H]1[C@H]2C[C@@H]3c4[nH]c5ccccc5c4CCN3C[C@H]2C[C@@H](OC(=O)c2cc(OC)c(OC)c(OC)c2)[C@@H]1OC [Deserpidine, reference compound] | 42.1 ×10⁻⁶ cm/s | 42 10^-6 cm/sec | 11.3 µM | 16.6 µM |  |
| CC[C@H](C)[C@H]1O[C@]2(C=C[C@@H]1C)C[C@@H]1C[C@@H](C/C=C(\C)[C@@H](O[C@H]3C[C@H](OC)[C@@H](O[C@H]4C[C@H](OC)[C@@H](O)[C@H](C)O4)[C@H](C)O3)[C@@H](C)/C=C/C=C3\CO[C@@H]4[C@H](O)C(C)=C[C@@H](C(=O)O1)[C@]34O)O2 [Avermectin B1A] | 35 ×10⁻⁶ cm/s |  | 25.9 µM | 17.2 µM |  |
| C[C@H]1COC2=C1C(=O)C(=O)c1c2ccc2c1CCCC2(C)C [Cryptotanshinone] | 12 ×10⁻⁶ cm/s |  | 21.1 µM | 19.8 µM |  |
| COc1ccc2c(c[n+](C)c3c4cc5c(cc4ccc23)OCO5)c1OC [Chelerythrine chloride] | 94.7 ×10⁻⁶ cm/s |  | 2.79 µM | 2.19 µM | AC50 [1, 3]: 2.79 µM; PAMPA-BBB Pe [5]: 94.67 10 × 10^− 6 cm/sec; AC50 [2, 7]: 2.19 µM |
| COc1ccc2c(c1OC)C(=O)O[C@@H]2[C@H]1c2cc3c(cc2CCN1C)OCO3 [Hydrastine] | 57.4 ×10⁻⁶ cm/s | 57 10^-6 cm/sec | 26.1 µM | 22.8 µM |  |
| CCCCCc1cc(O)c2c(c1)OC(C)(C)c1ccc(C)cc1-2 [Cannabinol] | 20.6 ×10⁻⁶ cm/s |  | 28.2 µM | 35.2 µM | Papp (in vitro; [6]): 21 ×10⁻⁶ cm/s |
| Cc1c(O)c(O)cc2c1CC=C1[C@@]2(C)CC[C@@]2(C)[C@H]3C[C@](C)(C(=O)O)CC[C@]3(C)CC[C@]12C [NCGC00264082-02] | 288 ×10⁻⁶ cm/s | 288 10^-6 cm/sec | 2.37 µM | 4.3 µM |  |
| C=C(C)[C@@]12OC3(c4ccccc4)O[C@@H]1[C@@H]1[C@@H]4O[C@]4(CO)[C@@H](O)[C@]4(O)C(=O)C(C)=C[C@H]4[C@@]1(O3)[C@H](C)[C@H]2OC(=O)/C=C/C=C/c1ccccc1 [Mezerein] | 15.6 ×10⁻⁶ cm/s |  | 16.3 µM | 9.41 µM | Papp (in vitro; [6]): 16 ×10⁻⁶ cm/s |
| Cc1cc2c(C(C)C)c(O)c(O)c(C=O)c2c(O)c1-c1c(C)cc2c(C(C)C)c(O)c(O)c(C=O)c2c1O [Gossypol] | 393 ×10⁻⁶ cm/s | 393 10^-6 cm/sec | 7.6 µM | 6.91 µM |  |
| COc1cc2c(O)c3c(c(-c4ccc5c(c4)OCO5)c2cc1OC)C(=O)OC3 [NCGC00077816-01] | 187 ×10⁻⁶ cm/s |  | 11 µM | 6.51 µM |  |
| CC(=O)O[C@@H]1C[C@@]2(C)[C@H](c3ccoc3)C[C@H]3O[C@]32[C@]2(C)C(=O)C(O)=C3C(C)(C)C(=O)C=C[C@]3(C)C12 (stereo partly shown) [NCGC00179158-03] | 17.6 ×10⁻⁶ cm/s |  | 2.77 µM | 2.35 µM | Papp (in vitro; [6]): 18 ×10⁻⁶ cm/s |
| COc1ccc(/C=C/C(=O)c2ccc(O)cc2O)cc1 [2',4'-DIHYDROXY-4-METHOXYCHALCONE] | 357 ×10⁻⁶ cm/s | 357 10^-6 cm/sec | 37.2 µM | 21.5 µM |  |
| COc1ccc(/C=C/C(=O)c2ccc(O)cc2O)cc1OC [2',4'-DIHYDROXY-3,4-DIMETHOXYCHALCONE] | 312 ×10⁻⁶ cm/s | 312 10^-6 cm/sec | 5.97 µM |  |  |
| O=C1C=C2C=C[C@@H]3C[C@@]2(O1)[C@H]1CCCCN31 [Securinine] | 22 ×10⁻⁶ cm/s | 22 10^-6 cm/sec | 16.2 µM |  |  |
| CSC(=S)NCc1c[nH]c2ccccc12 [BRASSININ] | 267 ×10⁻⁶ cm/s | 267 10^-6 cm/sec | 6.34 µM |  |  |
| CC1=C[C@H](O)CC(C)(C)[C@H]1/C=C/C(C)=C/C=C/C(C)=C/C=C/C=C(C)/C=C/C=C(C)/C=C/C1=C(C)C[C@@H](O)CC1(C)C [Lutein] | 28 ×10⁻⁶ cm/s |  | 24.2 µM | 21.1 µM |  |
| CN1[C@@H](CC(=O)c2ccccc2)CCC[C@H]1C[C@H](O)c1ccccc1 [Lobeline hydrochloride] | 31.8 ×10⁻⁶ cm/s |  | 9.96 µM | 22.5 µM | Papp (in vitro; [6]): 32 ×10⁻⁶ cm/s |

| Compound | Papp (in vitro; [4]) | PAMPA-BBB Pe [6] | AC50 [1, 8] | AC50 [2, 9] | other results |
| --- | --- | --- | --- | --- | --- |
| CC[C@@]1(O)C[C@H](O[C@H]2C[C@H](N(C)C)[C@H](O)[C@H](C)O2)c2c(cc3c(c2O)C(=O)c2c(O)ccc(O)c2C3=O)[C@H]1C(=O)OC [NCGC00178933-02] | 31.9 ×10⁻⁶ cm/s |  | 0.475 µM | 0.81 µM | Papp (in vitro; [6]): 32 ×10⁻⁶ cm/s |
| COc1cc(C2c3cc4c(c(O)c3CC3COC(=O)C32)OCO4)cc(OC)c1O (stereo not drawn) [Alpha-Peltatin] | 14.2 ×10⁻⁶ cm/s |  | 0.003 µM | 0.002 µM |  |
| COc1cc([C@@H]2c3cc4c(cc3C[C@H]3COC(=O)[C@@H]32)OCO4)cc(OC)c1O [(5R,5aR,8aR)-5-(4-hydroxy-3,5-dimethoxyphenyl)-5,8,8a,9-tetrahydrofuro[3',4':6,7]naphtho[2,3-d][1,3]dioxol-6(5aH)-one] | 11.2 ×10⁻⁶ cm/s |  | 0.585 µM | 0.656 µM | Papp (in vitro; [6]): 11 ×10⁻⁶ cm/s |
| O=C(/C=C/c1ccc(O)c(O)c1)OCCc1ccccc1 [Caffeic acid phenethyl ester] |  |  | 22.2 µM | 24.8 µM | PAMPA-BBB Pe [4]: >1000 10^-6 cm/sec |
| Oc1ccc(C2=Cc3ccc(O)cc3OC2)cc1 [Phenoxodiol] | 145 ×10⁻⁶ cm/s |  | 8.86 µM | 4.33 µM |  |
| C=C[C@@H](C1=CC(=O)C(OC)=C(OC)C1=O)c1ccccc1 [NCGC00160161-01] | 69.8 ×10⁻⁶ cm/s |  | 1.07 µM | 6.54 µM | Papp (in vitro; [6]): 70 ×10⁻⁶ cm/s |
| c1cc2c(cc1[C@H]1OC[C@H]3[C@@H]1CO[C@@H]3c1ccc3c(c1)OCO3)OCO2 [Sesamin] | 211 ×10⁻⁶ cm/s |  | 14.2 µM |  | Papp (in vitro; [6]): 211 ×10⁻⁶ cm/s |
| COC1=C[C@@]23CCN(C)[C@H](Cc4ccc(OC)c(O)c42)C3=CC1=O [(-)-Sinoacutine] | 11.5 ×10⁻⁶ cm/s |  | 15.2 µM |  |  |
| COc1ccc(C(=O)/C=C/c2ccccc2)cc1 [4'-METHOXYCHALCONE] |  | >1000 10^-6 cm/sec | 23.6 µM | 23.6 µM | PAMPA-BBB Pe [4]: >1000 10^-6 cm/sec |
| O=C1NC(=O)C(c2c[nH]c3ccccc23)=C1c1c[nH]c2ccccc12 [Bisindolylmaleimide IV] | > 654 ×10⁻⁶ cm/s |  | 10.6 µM | 13.9 µM |  |
| Cc1c2ccncc2c(C)c2c1[nH]c1ccccc12 [Ellipticine] |  | >1000 10^-6 cm/sec |  | 19.6 µM | AC50 [1, 3]: 2.64 µM; PAMPA-BBB Pe [5]: > 1000 10 × 10^− 6 cm/sec; PAMPA-BBB Pe [4]: >1000 10^-6 cm/sec; AC50 [2, 7]: 19.6 µM |
| CC=C1CN2CC[C@]34C(=C(C=O)[C@@H]1C[C@H]23)Nc1c(O)cccc14 [NCGC00160220-01] | 18.2 ×10⁻⁶ cm/s | 18 10^-6 cm/sec | 0.157 µM |  |  |
| S=c1ccss1 [D3T, 3H-1,2-dithiole-3-thione] | 97.8 ×10⁻⁶ cm/s |  | 51.2 µM |  |  |
| COc1ccc(CC(=O)c2ccc(O)cc2O)cc1 [ONONETIN] | 172 ×10⁻⁶ cm/s | 172 10^-6 cm/sec | 24.5 µM |  |  |
| CC(=O)c1c(O)cccc1O [NCGC00166008-01] | 44.7 ×10⁻⁶ cm/s |  | 1.98 µM |  |  |
| CCCC[C@@H](C)/C=C(C)/C=C(\C)C(=O)NC1=C[C@@](O)(/C=C/C=C/C=C/C(=O)NC2=C(O)CCC2=O)[C@@H]2O[C@@H]2C1=O [ManumycinA] | 64 ×10⁻⁶ cm/s |  | 6.43 µM | 8.33 µM |  |
| CC(C)=CCOc1c2occc2cc2ccc(=O)oc12 [Imperatorin] | 160 ×10⁻⁶ cm/s |  | 16.7 µM |  |  |
| C=CC(C1=CC(=O)C(OC)=CC1=O)c1ccc(OC)cc1 (stereo not shown) [NCGC00095719-04] | 143 ×10⁻⁶ cm/s |  | 1.26 µM | 1.33 µM | Papp (in vitro; [6]): 143 ×10⁻⁶ cm/s |
| Desoxycortone |  |  |  |  | AC50 ([1]; Table S1, total neurite length, 48 hr, head prints no unit, µM per Table 1 and Fig. 5, read-out: TNL AC50 (48 hr)): 33.5 µM; PAMPA-BBB Pe [4]: 65.13 10^-6 cm/sec |
| CC1(C)C=Cc2c(ccc(C(=O)/C=C/c3ccccc3)c2O)O1 [NCGC00187466-01] | 10.2 ×10⁻⁶ cm/s |  | 2.18 µM |  |  |
| COc1cc(C)cc(O)c1 [3-methoxy-5-methylphenol] | 49.7 ×10⁻⁶ cm/s |  | 13.4 µM |  |  |
